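Tested at 5 concentrations; 48 h exposure; 96-well plates; endpoints linearly interpolated, else capped at highest concentration. Definition used: TGI = concentration required for complete inhibition of growth.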
Tests used:
Experiment in all cases: inhibition of tumour cell growth, NCI panel, 48 h
SK-MEL-5 melanoma = tested on: SK-MEL-5 melanoma
OVCAR-4 ovarian = tested on: OVCAR-4 ovarian
COLO 205 colon = tested on: COLO 205 colon
SNB-75 CNS = tested on: SNB-75 CNS
MOLT-4 leukemia = tested on: MOLT-4 leukemia
HOP-62 NSCLC = tested on: HOP-62 NSCLC
786-0 renal = tested on: 786-0 renal
MDA-MB-435 = tested on: MDA-MB-435
HT29 colon = tested on: HT29 colon
BT-549 breast = tested on: BT-549 breast
T-47D breast = tested on: T-47D breast
RPMI-8226 leukemia = tested on: RPMI-8226 leukemia
A549 NSCLC = tested on: A549 NSCLC
DU-145 prostate = tested on: DU-145 prostate
NCI-H460 lung = tested on: NCI-H460 lung
TK-10 renal = tested on: TK-10 renal
OVCAR-3 ovarian = tested on: OVCAR-3 ovarian
SNB-19 CNS = tested on: SNB-19 CNS
MDA-MB-231 breast = tested on: MDA-MB-231 breast
A498 renal = tested on: A498 renal
MCF7 breast = tested on: MCF7 breast
NCI-H522 lung = tested on: NCI-H522 lung
SK-OV-3 ovarian = tested on: SK-OV-3 ovarian
SK-MEL-2 melanoma = tested on: SK-MEL-2 melanoma
SK-MEL-28 melanoma = tested on: SK-MEL-28 melanoma
MDA-N = tested on: MDA-N
HS 578T breast = tested on: HS 578T breast
MALME-3M melanoma = tested on: MALME-3M melanoma
NCI/ADR-RES ovarian = tested on: NCI/ADR-RES ovarian
SF-295 CNS = tested on: SF-295 CNS
SN12C renal = tested on: SN12C renal
OVCAR-8 ovarian = tested on: OVCAR-8 ovarian
PC-3 prostate = tested on: PC-3 prostate
SF-268 CNS = tested on: SF-268 CNS
SF-539 CNS = tested on: SF-539 CNS
KM12 colon = tested on: KM12 colon
LOX IMVI melanoma = tested on: LOX IMVI melanoma
UO-31 renal = tested on: UO-31 renal
M14 melanoma = tested on: M14 melanoma
CAKI-1 renal = tested on: CAKI-1 renal
IGROV1 ovarian = tested on: IGROV1 ovarian
UACC-62 melanoma = tested on: UACC-62 melanoma
HOP-92 NSCLC = tested on: HOP-92 NSCLC
OVCAR-5 ovarian = tested on: OVCAR-5 ovarian
HCT-116 colon = tested on: HCT-116 colon
NCI-H226 lung = tested on: NCI-H226 lung
ACHN renal = tested on: ACHN renal
K-562 leukemia = tested on: K-562 leukemia
HCT-15 colon = tested on: HCT-15 colon
UACC-257 melanoma = tested on: UACC-257 melanoma
HCC-2998 colon = tested on: HCC-2998 colon
NCI-H23 lung = tested on: NCI-H23 lung
U251 CNS = tested on: U251 CNS
SW-620 colon = tested on: SW-620 colon
SR leukemia = tested on: SR leukemia
EKVX NSCLC = tested on: EKVX NSCLC
CCRF-CEM leukemia = tested on: CCRF-CEM leukemia
HL-60(TB) leukemia = tested on: HL-60(TB) leukemia

Measured: TGI

Cc1oc2c(c1C)S(=O)(=O)C(C#N)=CN2
not listed: CCRF-CEM leukemia | HL-60(TB) leukemia
> 100 µM: all other assays above

COc1ccc2c3c1O[C@H]1C(=O)C=CC4(n5[nH]c(=O)n(-c6ccccc6)c5=O)C(C2)N(C)CCC314 (some centres undefined)
not listed: SNB-75 CNS | NCI-H460 lung | UACC-257 melanoma | HCC-2998 colon
> 100 µM: all other assays above

COC(=O)c1c2c(c3[nH]c4ccccc4c3c1C(=O)OC)C(=O)C1=C(C2=O)C2(Cl)C(Cl)C(Cl)C1(Cl)C2(Cl)Cl (centres undefined)
6.84 µM: SNB-75 CNS | SF-268 CNS
3.03 µM: A498 renal
7.78 µM: HL-60(TB) leukemia
4.6 µM: ACHN renal
9.19 µM: CAKI-1 renal
2.63 µM: SR leukemia
10.8 µM: PC-3 prostate
3.68 µM: HOP-92 NSCLC
24.7 µM: SNB-19 CNS
3.67 µM: MOLT-4 leukemia
4.34 µM: BT-549 breast
7.48 µM: U251 CNS
23.2 µM: K-562 leukemia
3.42 µM: MCF7 breast
6.17 µM: HCC-2998 colon
3.09 µM: MDA-MB-435
1.4 µM: SW-620 colon
37 µM: SK-OV-3 ovarian
8.65 µM: UO-31 renal
7.07 µM: HT29 colon
13.8 µM: NCI-H460 lung
4.05 µM: MALME-3M melanoma
7.59 µM: MDA-MB-231 breast
8.98 µM: OVCAR-3 ovarian
17.3 µM: KM12 colon
5.98 µM: SN12C renal
8.52 µM: IGROV1 ovarian
4.04 µM: NCI-H23 lung
2.97 µM: SK-MEL-28 melanoma
17.5 µM: TK-10 renal
3.19 µM: COLO 205 colon
90.9 µM: SF-295 CNS
8.07 µM: 786-0 renal
21.7 µM: HOP-62 NSCLC
6.15 µM: CCRF-CEM leukemia
2.75 µM: SK-MEL-5 melanoma | MDA-N
5.28 µM: OVCAR-8 ovarian
20.8 µM: HS 578T breast
7.19 µM: NCI/ADR-RES ovarian
4.59 µM: UACC-62 melanoma
5.68 µM: M14 melanoma
6.31 µM: OVCAR-4 ovarian
16.3 µM: T-47D breast
5.09 µM: RPMI-8226 leukemia
2.72 µM: NCI-H522 lung
4.51 µM: SF-539 CNS
> 100 µM: A549 NSCLC | DU-145 prostate | OVCAR-5 ovarian | HCT-116 colon | EKVX NSCLC
3.91 µM: LOX IMVI melanoma

Source: PubChem BioAssay (NCI)
